# Publication PMC11945486, “TAS1R2/TAS1R3 Single-Nucleotide Polymorphisms Affect Sweet Taste Receptor Activation by Sweeteners: The SWEET Project” (Nutrients, 2025)
# Target: T1, human TAS1R2-A574T (subunit alone) (Homo sapiens, UniProt Q8TE23, A574T)
# T1 construct: expressed in transfected cells; host or cells: HEK293T-Gα16gust44
# T1 sequence (Q8TE23 20-839 A574T): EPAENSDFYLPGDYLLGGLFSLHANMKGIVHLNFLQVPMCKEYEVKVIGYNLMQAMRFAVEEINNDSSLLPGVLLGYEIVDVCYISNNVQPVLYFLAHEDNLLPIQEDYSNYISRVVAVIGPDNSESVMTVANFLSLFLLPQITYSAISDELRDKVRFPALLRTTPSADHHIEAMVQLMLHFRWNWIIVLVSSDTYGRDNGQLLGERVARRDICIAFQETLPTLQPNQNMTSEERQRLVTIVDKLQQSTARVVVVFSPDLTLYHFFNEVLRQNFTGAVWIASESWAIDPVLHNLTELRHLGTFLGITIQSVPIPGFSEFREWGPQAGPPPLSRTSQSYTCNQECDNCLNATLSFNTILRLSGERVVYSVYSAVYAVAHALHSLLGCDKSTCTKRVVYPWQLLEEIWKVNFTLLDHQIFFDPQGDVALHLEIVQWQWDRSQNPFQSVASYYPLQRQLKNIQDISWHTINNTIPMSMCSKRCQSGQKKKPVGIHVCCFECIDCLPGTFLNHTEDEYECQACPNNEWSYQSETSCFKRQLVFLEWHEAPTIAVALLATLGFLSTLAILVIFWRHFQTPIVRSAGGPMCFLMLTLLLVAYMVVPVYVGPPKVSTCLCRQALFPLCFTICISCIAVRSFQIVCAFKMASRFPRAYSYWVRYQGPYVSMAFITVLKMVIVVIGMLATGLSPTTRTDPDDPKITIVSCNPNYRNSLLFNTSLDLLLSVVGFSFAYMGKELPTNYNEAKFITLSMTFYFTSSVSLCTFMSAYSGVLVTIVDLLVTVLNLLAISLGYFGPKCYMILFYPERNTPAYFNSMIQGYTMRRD
# Assay: Calcium mobilisation assay, TAS1R2-A574T subunit alone
# Type: cell-based
# From the text: The coding sequences for TAS1R2 and TAS1R3 were commercially synthesised, and the human codon was optimised for expression in human cells. The coding sequences of human TAS1R2 and TAS1R3 were subcloned and inserted into the mammalian expression vectors pcDNA6/myc-HisA and pcDNA4/myc-HisA (Invitrogen; Thermo Fisher Scientific; Illkirch, France) between the EcoRI and NotI restriction sites, generating the plasmids pcDNA6-TAS1R2 and pcDNA4-TAS1R3, respectively. To increase protein expression in mammalian cells, an upstream start codon was used, which was a sequence called MAX, corresponding to the QBI SP163 element also described in pcDNA4-HisMax (Invitrogen; Thermo Fisher Scientific; Illkirch, France). To measure the expression level of the receptor by immunohistochemistry, we used the FLAG sequence ([…]) in the C-terminal position, which encodes the FLAG tag epitope. […]
# The HEK293T cells were kindly provided by Jay P. Slack (Givaudan Flavors Corporation; Cincinnati, OH, USA). […] The fluorescence intensity was measured for 90 s (excitation 488 nm, emission 510 nm) in an automated fluorometric FlexStation®3 Multi-Mode microplate reader (Molecular Devices; San Jose, CA, USA). […] The Ca^2+ changes were expressed as fractional changes in fluorescent light intensity: ΔF/F = (F − F0)/F0, where F was the fluorescent light intensity at each point, and F0 was the value of emitted fluorescent light prior to stimulus application. To calculate dose–response relationships, the changes in fluorescence upon stimulus application were averaged, mock-subtracted and baseline-corrected. […] The half-maximal effective concentrations (EC50 values) and maximal signal amplitudes were calculated using SigmaPlot software (version 15.0) (Systat Software; San Jose, CA, USA).
# For in vitro calcium mobilisation assay performed on hTAS1R2-SNPs, hTAS1R3-SNPs and mTAS1R3-I60T, 6 to 7 concentrations were tested for each sweet compound, plus buffer alone. All concentration–receptor combinations were measured in duplicate, and each experiment was repeated at least 4 times (8 wells/concentration). […]
compound,measurement,setting,value
"C=C(C)[C@@H]1CC=C(/C=N/O)CC1 [Perillartine, perillartine]",EC50,,85.3 ± 12.4 µM
same,R1 = Variant EC50/WT EC50,,0.9
same,Max ΔF/F0,maximal signal amplitude,0.25 ± 0.01
